How the values were obtained:
[1] = biological target: C-C chemokine receptor type 2 (Homo sapiens, UniProt P41597); experiment: Displacement of [125I]MCP1 from CCR2 receptor in human monocytes; assay type: cell-based
[2] = Selectivity for human CCR2 over IKr
[3] = biological target: Voltage-gated inwardly rectifying potassium channel KCNH2 (Homo sapiens, UniProt Q12809); experiment: Displacement of [[…]]MK499 from human ERG expressed in HEK cells; assay type: cell-based, HEK293
[4] = biological target: C-C chemokine receptor type 5 (Homo sapiens) (UniProt P51681); experiment: Inhibition of CCR5 at 1 uM; design: scale not given: the % may be the effect or the level left
[5] = Oral bioavailability in rat at 3 mg/kg; assay type: ADME, organism-based; conditions: in vivo
[6] = Half life in rat at 3 mg/kg, po; assay type: ADME, organism-based; design: dose 3 mg/kg, route oral; conditions: in vivo
[7] = Clearance in rat at 3 mg/kg, po; assay type: ADME, organism-based; design: dose 3 mg/kg, route oral; conditions: in vivo

Chain of C-C chemokine receptor type 5 (Homo sapiens) (P51681 whole entry, looked up): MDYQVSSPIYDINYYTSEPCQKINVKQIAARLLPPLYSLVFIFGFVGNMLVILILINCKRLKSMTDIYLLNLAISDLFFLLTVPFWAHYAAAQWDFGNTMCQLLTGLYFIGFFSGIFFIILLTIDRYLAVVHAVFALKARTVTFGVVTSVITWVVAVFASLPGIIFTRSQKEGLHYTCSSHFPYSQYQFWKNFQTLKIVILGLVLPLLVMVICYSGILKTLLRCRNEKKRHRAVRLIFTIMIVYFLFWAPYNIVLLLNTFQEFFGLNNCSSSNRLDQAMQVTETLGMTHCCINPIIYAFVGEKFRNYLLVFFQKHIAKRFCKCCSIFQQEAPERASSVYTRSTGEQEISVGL
Chain of Voltage-gated inwardly rectifying potassium channel KCNH2 (Q12809 whole entry): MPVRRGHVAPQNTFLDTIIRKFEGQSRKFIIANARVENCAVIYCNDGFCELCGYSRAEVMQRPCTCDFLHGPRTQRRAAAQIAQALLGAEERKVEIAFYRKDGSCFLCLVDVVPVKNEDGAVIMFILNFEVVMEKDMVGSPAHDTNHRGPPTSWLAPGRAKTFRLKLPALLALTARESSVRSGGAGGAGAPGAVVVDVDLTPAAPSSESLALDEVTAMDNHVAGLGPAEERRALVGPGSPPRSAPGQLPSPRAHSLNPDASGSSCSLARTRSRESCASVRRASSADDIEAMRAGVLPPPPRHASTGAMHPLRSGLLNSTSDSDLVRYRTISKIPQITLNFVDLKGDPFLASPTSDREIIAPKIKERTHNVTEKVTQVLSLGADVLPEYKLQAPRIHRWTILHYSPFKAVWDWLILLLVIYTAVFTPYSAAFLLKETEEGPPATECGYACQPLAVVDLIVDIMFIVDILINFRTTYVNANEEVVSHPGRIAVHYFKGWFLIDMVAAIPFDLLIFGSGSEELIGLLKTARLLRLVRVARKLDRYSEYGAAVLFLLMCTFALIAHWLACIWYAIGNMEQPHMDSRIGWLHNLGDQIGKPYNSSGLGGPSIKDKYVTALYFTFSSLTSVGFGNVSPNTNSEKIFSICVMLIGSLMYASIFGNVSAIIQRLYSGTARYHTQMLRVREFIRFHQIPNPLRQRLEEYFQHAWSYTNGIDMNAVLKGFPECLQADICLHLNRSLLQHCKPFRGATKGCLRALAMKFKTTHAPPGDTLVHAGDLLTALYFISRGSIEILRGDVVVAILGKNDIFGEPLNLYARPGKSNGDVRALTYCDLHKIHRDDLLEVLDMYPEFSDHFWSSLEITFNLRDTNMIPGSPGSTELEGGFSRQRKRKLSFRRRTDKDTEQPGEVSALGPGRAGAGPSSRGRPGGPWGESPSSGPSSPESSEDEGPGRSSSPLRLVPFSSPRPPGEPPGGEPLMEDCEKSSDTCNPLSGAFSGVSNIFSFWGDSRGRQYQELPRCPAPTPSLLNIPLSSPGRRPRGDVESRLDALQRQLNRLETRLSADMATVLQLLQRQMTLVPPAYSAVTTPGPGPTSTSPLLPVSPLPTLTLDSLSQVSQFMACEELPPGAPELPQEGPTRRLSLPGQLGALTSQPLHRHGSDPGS
Chain of C-C chemokine receptor type 2 (P41597 whole entry): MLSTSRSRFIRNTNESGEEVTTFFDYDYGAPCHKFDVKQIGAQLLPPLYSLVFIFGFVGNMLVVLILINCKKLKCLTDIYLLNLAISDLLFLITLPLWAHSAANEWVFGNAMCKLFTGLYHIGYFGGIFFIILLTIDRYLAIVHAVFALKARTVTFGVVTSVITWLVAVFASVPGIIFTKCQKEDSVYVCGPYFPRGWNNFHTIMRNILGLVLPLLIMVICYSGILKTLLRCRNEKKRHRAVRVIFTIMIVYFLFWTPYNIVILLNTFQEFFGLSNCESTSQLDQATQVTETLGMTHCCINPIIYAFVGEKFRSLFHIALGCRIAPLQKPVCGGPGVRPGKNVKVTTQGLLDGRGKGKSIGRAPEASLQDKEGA

Row | SMILES | IC50 [1] [nM] | IKr IC50/CCR2 IC50 ratio [2] | IC50 [3] [nM] | also measured
1 | CC(C)[C@]1(C(=O)NCc2cc(C(F)(F)F)cc(C(F)(F)F)c2)CC[C@@H](N2CCC(c3cncnc3)CC2)C1 [listing 1 of 2 here] | 5 |  |  | 
2 | CC(C)[C@]1(C(=O)NCc2cc(C(F)(F)F)cc(C(F)(F)F)c2)CC[C@@H](N2CCC(c3ccc(F)cc3)CC2)C1 | 3 | 5 | 16 | Activity [4]: 69%
3 | CC(C)(O)[C@]1(C(=O)NCc2cc(C(F)(F)F)cc(C(F)(F)F)c2)CC[C@@H](N2CCC(c3ccc(F)cc3)CC2)C1 | 1.3 | 42 | 54 | Activity [4]: 69%
4 | CC(C)(O)[C@]1(C(=O)NCc2cc(C(F)(F)F)cc(C(F)(F)F)c2)CC[C@@H](N2CCC(c3cncnc3)CC2)C1 | 6 |  |  | Activity [4]: 3%
5 | CC(C)[C@]1(C(=O)NCc2cc(C(F)(F)F)cc(C(F)(F)F)c2)CC[C@@H](N2CCC(c3cncnc3)CC2)C1 [listing 2 of 2 here] |  |  |  | Activity [4]: 3%
6 | CC(C)[C@]1(C(=O)NCc2cc(C(F)(F)F)cc(C(F)(F)F)c2)CC[C@@H](N2CCC(c3cccnc3)CC2)C1 (relative stereo) | 6 |  |  | 
7 | CC(C)[C@]1(C(=O)NCc2cc(C(F)(F)F)cc(C(F)(F)F)c2)CC[C@@H](N2CCC(c3cncnc3)CC2)C1 (relative stereo) | 12 |  |  | bioavailability [5]: 33%; half-life [6]: 3.8 h; CL/F [7]: 7 mL/min/kg
8 | CC(C)[C@]1(C(=O)NCc2cc(C(F)(F)F)cc(C(F)(F)F)c2)CC[C@@H](N2CCC(c3cccc(O)c3)CC2)C1 (single isomer, unassigned) | 6 | 11 | 67 | 
9 | CC(C)[C@]1(C(=O)NCc2cc(C(F)(F)F)cc(C(F)(F)F)c2)CC[C@@H](N2CCC(c3cccnn3)CC2)C1 (single isomer, unassigned) | 50 |  |  | 
10 | CC(C)[C@]1(C(=O)NCc2cc(C(F)(F)F)cc(C(F)(F)F)c2)CC[C@@H](N2CCC(c3cccc(F)c3)CC2)C1 (single isomer, unassigned) | 4 |  |  | 

The next lines start with results.

Row | IC50 [1] [nM] | SMILES | IKr IC50/CCR2 IC50 ratio [2] | IC50 [3] [nM] | also measured
11 | 62 | CC(C)[C@]1(C(=O)NCc2cc(C(F)(F)F)cc(C(F)(F)F)c2)CC[C@@H](N2CCC(c3cccc(C(=O)O)c3)CC2)C1 | 45 | 2790 | 
12 | 41 | CC(C)[C@]1(C(=O)NCc2cc(C(F)(F)F)cc(C(F)(F)F)c2)CC[C@@H](N2CCC(c3cccc(C(=O)O)c3)CC2)C1 (single isomer, unassigned) | 15 | 600 | 
13 | 44 | CC(C)[C@]1(C(=O)NCc2cc(C(F)(F)F)cc(C(F)(F)F)c2)CC[C@@H](N2CCC(c3ccncn3)CC2)C1 (single isomer, unassigned) | 3 | 130 | 
14 | 165 | CC(C)[C@]1(C(=O)NCc2cc(C(F)(F)F)cc(C(F)(F)F)c2)CC[C@@H](N2CCC(c3ccc(Cl)nn3)CC2)C1 (single isomer, unassigned) |  |  | 
15 | 64 | CC(C)[C@]1(C(=O)NCc2cc(C(F)(F)F)cc(C(F)(F)F)c2)CC[C@@H](N2CCC(c3ccnnc3)CC2)C1 (single isomer, unassigned) |  |  | 
16 | 144 | CC(C)[C@]1(C(=O)NCc2cc(C(F)(F)F)cc(C(F)(F)F)c2)CC[C@@H](N2CCC(c3ncccn3)CC2)C1 (single isomer, unassigned) |  |  | 
17 | 6 | COc1cccc(C2CCN([C@@H]3CC[C@@](C(=O)NCc4cc(C(F)(F)F)cc(C(F)(F)F)c4)(C(C)C)C3)CC2)c1 (single isomer, unassigned) | 36 | 217 | 
